In US8476276B2, “Pharmaceutical compositions based on kinin B2 receptor antagonists and corticosteroids, and their use” (Istituto Luso Farmaco d'Italia S.p.A., priority 2008, dated 2013):

Experiments:
[1] = system: cell infiltration in the airways caused by LPS; experiment: LPS-induced airway inflammation, leucocytes in bronchoalveolar washing; format: in vivo, guinea pig; details: for reduction of the number of inflammatory cells in the airways after LPS: aerosol of a 1 mg/ml solution for 15 min
[2] = system: carrageenan-induced joint oedema; experiment: Carrageenan-induced knee arthritis, joint oedema (knee joint diameter); format: in vivo, rat; details: for reduction of carrageenan-induced knee swelling: hydrocortisone experiment, 100 μg i.a. 30 min before carrageenan
Method: (§1) The activity of MEN16132, icatibant and cortisones was measured in an experimental model of arthritis induced by intra-articular injection of carrageenan which causes a strong inflammatory effect. […] The weight imbalance on the two weight-bearing paws, evaluated in a non-invasive way with the incapacitance test, measures the pain resulting from the joint inflammation. The diameter of the knee joint was also measured to measure the oedema.

[3] = system: human airway muscle cells; experiment: LPS-induced PGE2 release in cultures of human airway muscle cells; format: cell-based; details: LPS 1 μg/ml for 24 hours
Method: Similar findings were obtained with an in vitro model, in cultures of human airway muscle cells stimulated for 24 hours with 1 μg/ml LPS, where an approximately 16-fold increase in the production of PGE2 was observed compared with the control.

[4] = system: carrageenan-induced joint pain; experiment: Carrageenan-induced knee arthritis, joint pain (incapacitance test); format: in vivo, rat
Method: as §1

[5] = system: symptomatic OA of the knee; details: cited from earlier work
[6] = 100 μg/25 μl i.a. 30 min before carrageenan, maximum effect 6 hours
[7] = 100 μg i.a. 30 min before carrageenan, 6 hours after the irritant

SMILES | reduction of the number of inflammatory cells in the airways after LPS [1] | reduction of carrageenan-induced oedema [2, 6] | reduction of carrageenan-induced knee swelling [2] | reduction of LPS-induced release of PGE2 ([3]; 100 nM) | reduction of joint pain [4, 7] | duration of analgesic response after the treatment ([5]; intra-articular infiltration, 3×500 μg injections one week apart) | intensity of pain in the knee ([5]; phase II, single intra-articular administration 90 μg/1 ml, versus placebo) | reduction of cell infiltration in the airways after LPS ([1]; aerosol of a 0.03 mg/ml solution for 15 min) | reduction of carrageenan-induced oedema ([2]; dexamethasone 10 μg i.a.) | reduction of LPS-induced release of PGE2 ([3]; 1 μM) | reduction of joint pain ([4]; 10 μg i.a.)
Cc1cc(C)c2cccc(OCc3c(Cl)ccc(S(=O)(=O)NC4(C(=O)N5CCN(C(=O)[C@@H](N)CCC[N+](C)(C)C)CC5)CCOCC4)c3Cl)c2n1 [MEN16132, (4-(S)-amino-5-(4-{4-[2,4-dichloro-3-(2,4-dimethyl-quinolin-8-yloxymethyl)-benzenesulphonylamino]-tetrahydro-pyran-4-carbonyl}-piperazin-1-yl)-5-oxo-pentyl]-trimethyl-ammonium] | 6% | 45±3% | 42±3% | 39% | 38±4% | – | – | – | – | – | –
C[C@]12CCC(=O)C=C1CC[C@@H]1[C@@H]2[C@@H](O)C[C@@]2(C)[C@H]1CC[C@]2(O)C(=O)CO [hydrocortisone, Hydrocortisone] | – | – | −4±3% | – | – | – | – | – | – | – | –
NC(N)=NCCC[C@@H](N)C(=O)N[C@@H](CCCN=C(N)N)C(=O)N1CCC[C@H]1C(=O)N1C[C@H](O)C[C@H]1C(=O)NCC(=O)N[C@@H](Cc1cccs1)C(=O)N[C@@H](CO)C(=O)N1Cc2ccccc2C[C@@H]1C(=O)N1[C@H](C(=O)N[C@@H](CCCN=C(N)N)C(=O)O)C[C@@H]2CCCC[C@@H]21 [icatibant, H-D-Arg-Arg-Pro-Hyp-Gly-Thi-Ser-D-Tic-Oic-Arg-OH] | 5% | 48±5% | – | 30% | – | up to 3 months | reduced the intensity of pain in the knee to a greater extent than the placebo | – | – | – | –
C[C@@H]1C[C@H]2[C@@H]3CCC4=CC(=O)C=C[C@]4(C)[C@@]3(F)[C@@H](O)C[C@]2(C)[C@@]1(O)C(=O)CO [dexamethasone, Dexamethasone] | – | 57±3% | – | – | 44±3% | – | – | 8% | inactive | 45% | 14±4%
